PMC10247784, “Physiological activation of human and mouse bitter taste receptors by bile acids” (Communications Biology, 2023)
Several values for one entry are separate records, joined by “and”; a condition that tells them apart may be missing. Identical values can stand only once.

Target: T1, human TAS2R14 (Homo sapiens, UniProt Q9NYV8)
T1 construct: expressed in transfected cells; host or cells: HEK293T-Gα16gust44
T1 sequence (Q9NYV8 1-317): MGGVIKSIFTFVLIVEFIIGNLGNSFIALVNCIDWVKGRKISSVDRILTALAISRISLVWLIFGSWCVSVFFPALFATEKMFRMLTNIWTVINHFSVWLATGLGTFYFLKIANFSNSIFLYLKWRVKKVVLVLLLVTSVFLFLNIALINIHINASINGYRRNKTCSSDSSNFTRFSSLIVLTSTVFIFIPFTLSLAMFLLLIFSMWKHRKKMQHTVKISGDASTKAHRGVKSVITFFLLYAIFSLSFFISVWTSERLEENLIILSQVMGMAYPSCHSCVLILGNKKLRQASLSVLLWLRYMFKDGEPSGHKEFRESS
Experiment: Calcium imaging assay (FLIPR), HEK293T-Gα16gust44 cells transfected with human TAS2R14
Assay type: cell-based
Conditions: for RLU: TAS2R14 trace
Method in brief: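 Calcium responses via FLIPR in receptor-transfected HEK293T-Gα16gust44 cells (Fluo-4-AM, 2.5 mM probenecid), after mock-signal subtraction and normalization to baseline and buffer (ΔF/F). Threshold concentration is the lowest dose differing from mock cells at p < 0.01 (Student's t-test), from three biological replicates in duplicate.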

C[C@H](CCC(=O)NCC(=O)O)[C@H]1CC[C@H]2[C@@H]3[C@H](O)C[C@@H]4C[C@H](O)CC[C@]4(C)[C@H]3C[C@H](O)[C@]12C [Glycocholic Acid, glycocholic acid]
Efficacy = maximal amplitude (ΔF/F) (TAS2R14, bile acids, mean): 0.2451 | Efficacy (maximal amplitude ΔF/F), individual data points (TAS2R14, bile acids, single replicates, listed as GCA): 0.2248 and 0.2913 and 0.2191 | Δ F/F (TAS2R14, conc. 0,01 mM): 0.002092 | Δ F/F (TAS2R14, conc. 0,1 mM): 0.02639 | Δ F/F (TAS2R14, conc. 0,03 mM): 0.01392 | Δ F/F (TAS2R14, conc. 0,3 mM): 0.06546 | Δ F/F (TAS2R14, conc. 0,001 mM): 0.007446 | Δ F/F (TAS2R14, conc. 1 mM): 0.2451 | Δ F/F (TAS2R14, conc. 0,003 mM): 0.001619 | RLU (Time (s) 0): 0 RLU | RLU (Time (s) 2 (Taurocholic Acid 2.016)): -6.072 RLU | RLU (Time (s) 4 (Taurocholic Acid 4.016)): -9.1 RLU | RLU (Time (s) 6 (Taurocholic Acid 6.016)): -27.0469 RLU | RLU (Time (s) 8 (Taurocholic Acid 8.016)): -30.0405 RLU | RLU (Time (s) 12 (Taurocholic Acid 12.016)): -37.9898 RLU | RLU (Time (s) 14 (Taurocholic Acid 14.016)): -36.9901 RLU | RLU (Time (s) 16 (Taurocholic Acid 16.016)): -51.9041 RLU | RLU (Time (s) 18 (Taurocholic Acid 18.016)): -34 RLU | RLU (Time (s) 18.797 (Chenodeoxycholic Acid 18.765)): -73.9735 RLU | RLU (Time (s) 20.797 (Chenodeoxycholic Acid 20.781)): -100.333 RLU | RLU (Time (s) 22.797 (Chenodeoxycholic Acid 22.781)): -58.0996 RLU | RLU (Time (s) 24.797 (Chenodeoxycholic Acid 24.781)): -11.7946 RLU | RLU (Time (s) 26.797 (Chenodeoxycholic Acid 26.781)): -4.829 RLU | RLU (Time (s) 28.797 (Chenodeoxycholic Acid 28.781)): -12.95 RLU | RLU (Time (s) 30.797 (Chenodeoxycholic Acid 30.781)): 25.2324 RLU | RLU (Time (s) 32.797 (Chenodeoxycholic Acid 32.781)): 58.2752 RLU | RLU (Time (s) 34.797 (Chenodeoxycholic Acid 34.781)): 56.7501 RLU | RLU (Time (s) 36.797 (Chenodeoxycholic Acid 36.781)): 94.7938 RLU | RLU (Time (s) 38.797 (Chenodeoxycholic Acid 38.781)): 109.443 RLU | RLU (Time (s) 40.797 (Chenodeoxycholic Acid 40.781)): 134.729 RLU | RLU (Time (s) 42.797 (Chenodeoxycholic Acid 42.781)): 165.138 RLU | RLU (Time (s) 44.797 (Chenodeoxycholic Acid 44.781)): 223.768 RLU | RLU (Time (s) 46.797 (Chenodeoxycholic Acid 46.781)): 253.169 RLU | RLU (Time (s) 48.797 (Chenodeoxycholic Acid 48.781)): 284.606 RLU | RLU (Time (s) 50.797 (Chenodeoxycholic Acid 50.781)): 322.537 RLU | RLU (Time (s) 52.797 (Chenodeoxycholic Acid 52.781)): 365.455 RLU | RLU (Time (s) 54.797 (Chenodeoxycholic Acid 54.781)): 404.11 RLU | RLU (Time (s) 56.797 (Chenodeoxycholic Acid 56.781)): 424.679 RLU | RLU (Time (s) 58.797 (Chenodeoxycholic Acid 58.781)): 448.405 RLU | RLU (Time (s) 60.797 (Chenodeoxycholic Acid 60.781)): 513.015 RLU | RLU (Time (s) 62.797 (Chenodeoxycholic Acid 62.781)): 520.328 RLU | RLU (Time (s) 64.797 (Chenodeoxycholic Acid 64.781)): 518.587 RLU | RLU (Time (s) 66.797 (Chenodeoxycholic Acid 66.781)): 566.626 RLU | RLU (Time (s) 68.797 (Chenodeoxycholic Acid 68.781)): 571.358 RLU | RLU (Time (s) 70.797 (Chenodeoxycholic Acid 70.781)): 583.853 RLU | RLU (Time (s) 72.797 (Chenodeoxycholic Acid 72.781)): 622.789 RLU | RLU (Time (s) 74.797 (Chenodeoxycholic Acid 74.781)): 701.49 RLU | RLU (Time (s) 76.797 (Chenodeoxycholic Acid 76.781)): 688.581 RLU | RLU (Time (s) 78.797 (Chenodeoxycholic Acid 78.781)): 706.104 RLU | RLU (Time (s) 80.797 (Chenodeoxycholic Acid 80.781)): 737.493 RLU | RLU (Time (s) 82.797 (Chenodeoxycholic Acid 82.781)): 736.745 RLU | RLU (Time (s) 84.797 (Chenodeoxycholic Acid 84.781)): 766.635 RLU | RLU (Time (s) 86.797 (Chenodeoxycholic Acid 86.781)): 784.026 RLU | RLU (Time (s) 88.797 (Chenodeoxycholic Acid 88.781)): 835.93 RLU | RLU (Time (s) 90.797 (Chenodeoxycholic Acid 90.781)): 879.758 RLU | RLU (Time (s) 92.797 (Chenodeoxycholic Acid 92.781)): 905.014 RLU | RLU (Time (s) 94.797 (Chenodeoxycholic Acid 94.781)): 871.313 RLU | RLU (Time (s) 96.797 (Chenodeoxycholic Acid 96.781)): 875.012 RLU | RLU (Time (s) 98.797 (Chenodeoxycholic Acid 98.781)): 900.527 RLU | RLU (Time (s) 100.797 (Chenodeoxycholic Acid 100.781)): 907.622 RLU | RLU (Time (s) 102.797 (Chenodeoxycholic Acid 102.781)): 872.83 RLU | RLU (Time (s) 104.797 (Chenodeoxycholic Acid 104.781)): 919.127 RLU | RLU (Time (s) 106.797 (Chenodeoxycholic Acid 106.781)): 885.988 RLU | RLU (Time (s) 108.797 (Chenodeoxycholic Acid 108.781)): 899.974 RLU | RLU (Time (s) 110.797 (Chenodeoxycholic Acid 110.781)): 929.16 RLU | RLU (Time (s) 112.797 (Chenodeoxycholic Acid 112.781)): 924.683 RLU | RLU (Time (s) 114.797 (Chenodeoxycholic Acid 114.781)): 936.987 RLU | RLU (Time (s) 116.797 (Chenodeoxycholic Acid 116.781)): 927.195 RLU | RLU (Time (s) 118.797 (Chenodeoxycholic Acid 118.781)): 907.689 RLU | RLU (Time (s) 120.797 (Chenodeoxycholic Acid 120.781)): 904.35 RLU | RLU (Time (s) 122.797 (Chenodeoxycholic Acid 122.781)): 945.812 RLU | RLU (Time (s) 124.797 (Chenodeoxycholic Acid 124.781)): 947.759 RLU | RLU (Time (s) 126.797 (Chenodeoxycholic Acid 126.781)): 937.139 RLU | RLU (Time (s) 128.797 (Chenodeoxycholic Acid 128.781)): 931.219 RLU | RLU (Time (s) 130.797 (Chenodeoxycholic Acid 130.781)): 907.598 RLU | RLU (Time (s) 132.797 (Chenodeoxycholic Acid 132.781)): 937.794 RLU | RLU (Time (s) 134.797 (Chenodeoxycholic Acid 134.781)): 944.802 RLU | RLU (Time (s) 136.797 (Chenodeoxycholic Acid 136.781)): 914.908 RLU | RLU (Time (s) 137.562 (Taurocholic Acid 137.563, Chenodeoxycholic Acid 137.546)): 923.636 RLU | RLU (Time (s) 143.578 (Taurocholic Acid 143.563, Chenodeoxycholic Acid 143.546)): 874.438 RLU | RLU (Time (s) 149.578 (Taurocholic Acid 149.563, Chenodeoxycholic Acid 149.546)): 827.247 RLU | RLU (Time (s) 155.578 (Taurocholic Acid 155.563, Chenodeoxycholic Acid 155.546)): 796.558 RLU | RLU (Time (s) 161.578 (Taurocholic Acid 161.563, Chenodeoxycholic Acid 161.546)): 810.447 RLU | RLU (Time (s) 167.578 (Taurocholic Acid 167.563, Chenodeoxycholic Acid 167.546)): 731.625 RLU | RLU (Time (s) 173.578 (Taurocholic Acid 173.563, Chenodeoxycholic Acid 173.546)): 735.471 RLU | RLU (Time (s) 179.578 (Taurocholic Acid 179.563, Chenodeoxycholic Acid 179.546)): 706.541 RLU | RLU (Time (s) 191.578 (Taurocholic Acid 191.563, Chenodeoxycholic Acid 191.546)): 666.973 RLU | RLU (Time (s) 197.578 (Taurocholic Acid 197.563, Chenodeoxycholic Acid 197.546)): 650.688 RLU | RLU (Time (s) 209.578 (Taurocholic Acid 209.563, Chenodeoxycholic Acid 209.546)): 612.527 RLU | RLU (Time (s) 221.578 (Taurocholic Acid 221.563, Chenodeoxycholic Acid 221.546)): 516.97 RLU | RLU (Time (s) 233.578 (Taurocholic Acid 233.563, Chenodeoxycholic Acid 233.546)): 445.674 RLU | RLU (Time (s) 239.578 (Taurocholic Acid 239.563, Chenodeoxycholic Acid 239.546)): 433.467 RLU | RLU (Time (s) 245.578 (Taurocholic Acid 245.563, Chenodeoxycholic Acid 245.546)): 428.616 RLU | RLU (Time (s) 293.578 (Taurocholic Acid 293.563, Chenodeoxycholic Acid 293.546)): 228.532 RLU | RLU (Time (s) 299.578 (Taurocholic Acid 299.563, Chenodeoxycholic Acid 299.546)): 222.955 RLU | RLU (Time (s) 305.578 (Taurocholic Acid 305.563, Chenodeoxycholic Acid 305.546)): 237.423 RLU | RLU (Time (s) 311.578 (Taurocholic Acid 311.563, Chenodeoxycholic Acid 311.546)): 201.505 RLU | RLU (Time (s) 317.578 (Taurocholic Acid 317.563, Chenodeoxycholic Acid 317.546)): 204.947 RLU | RLU (Time (s) 323.578 (Taurocholic Acid 323.563, Chenodeoxycholic Acid 323.546)): 189.257 RLU | RLU (Time (s) 329.578 (Taurocholic Acid 329.563, Chenodeoxycholic Acid 329.546)): 164.774 RLU | RLU (Time (s) 335.578 (Taurocholic Acid 335.563, Chenodeoxycholic Acid 335.546)): 171.566 RLU | RLU (Time (s) 341.578 (Taurocholic Acid 341.563, Chenodeoxycholic Acid 341.546)): 143.607 RLU | RLU (Time (s) 347.578 (Taurocholic Acid 347.563, Chenodeoxycholic Acid 347.546)): 131.554 RLU | RLU (Time (s) 353.578 (Taurocholic Acid 353.563, Chenodeoxycholic Acid 353.546)): 173.027 RLU | RLU (Time (s) 359.578 (Taurocholic Acid 359.563, Chenodeoxycholic Acid 359.546)): 156.135 RLU | Activation threshold concentration TAS2R14 (lowest concentration with significantly increased fluorescence vs empty vector (p < 0.01)): 100 µM
